Test results: article PMC7463460, “Structure and Antiparasitic Activity Relationship of Alkylphosphocholine Analogues against Leishmania donovani” (Microorganisms, 2020)
Several values for one entry are separate records, joined by “and”; a condition that tells them apart may be missing. Identical values can stand only once.

Experiments:
Format in all cases: cell-based, Leishmania donovani
[1] = system: L. donovani 087/11 Milt-Sb-intermediate intracellular amastigotes; experiment: Intracellular amastigote assay, Milt-resistant 087/11; details: for IC50: Leishmania donovani, read-out: Mean IC50 Value Amastigotes; for Cross-Resistance Index (CRI50) Amast / Selectivity Index (SI50): strain 087/11, Milt-Sb-intermediate; for Selectivity Index (SI50): macrophage CC50 / amastigote IC50
Excerpt: (§1) L. donovani cloned strains with different Sb susceptibility backgrounds were derived from isolates obtained from VL patients at the B.P. Koirala Institute of Health Sciences, Dharan, Nepal: MHOM/NP/02/BPK282/0cl4 (Sb sensitive, Sb-S). MHOM/NP/02/BPK087/0cl11 (Sb intermediate, Sb-I) and MHOM/NP/02/BPK275/0cl18 (Sb resistance, Sb-R [13]). In addition, Milt-resistant parasites raised against these three Sb sensitivity backgrounds and the Sb-sensitive strain (MHOM/ET/67:LV82) was also used in studies. Luciferase expressing promastigotes for the LV82 and Nepalese strains were prepared using previously published methods and the integrative construct (a gift from Dr D.F. Smith), designated pGL1313, contained pSSU-int fragments to facilitate integration into the ribosomal RNA locus of Leishmania.
(§2) In the macrophage studies, the method described in previous studies was used as follows. Briefly, bone-marrow-derived BALB/c macrophages (1–2 × 10^5) in 100 µL complete RPMI 1640 medium were added to the wells of a 96 well plate and left to adhere for 24 h at 37 °C, 5% CO₂/95% air. The medium was removed and 100 µL of the appropriate L. donovani luciferase-expressing promastigotes line (parasite: host cell ratio 1:10, 1:20 or 1:40) was added to each well, the ratio used reflected the infectivity of the strain and ensured that control data gave a bioluminescent signal within the same range. […] The variability in infectivity complicates strain to strain comparisons, but we decided to focus on achieving good infection levels in controls so that the effect of drug treatment could be determined. It is possible that intracellular macrophage parasites could have been at different developmental stages at 24 h post-infection. […] Therefore, we assumed that the effect of compounds on the amastigote stage rather than the promastigotes stage was determined in in vitro macrophage studies.
(§3) The plate was incubated for a further 24 h, the medium removed, and each well washed with PBS to eliminate non-internalized parasites, which were monitored microscopically. When the wells were devoid of external parasites, 100 µL of the medium alone (control) or appropriate APC compound was then added (0.01–0.197 µg/mL, n = 3/treatment). […]. All plates were incubated for 72 h at 37 °C, 5% CO₂/95% air. Wells with macrophage and with no drug or promastigotes added were used in control experiments.
(§4) Luciferin solution (1 µg/mL in 20 µL medium without FCS) was added to the appropriate wells of the 96-well plate at the end of the experiment and the amount of light emitted/well was measured using a luminometer (Biotek Synergy HT, relative light units) using a wavelength/bandwidth of 440/40 nm, or IVIS® imaging (Spectrum Living Image system®, total flux, photons/sec).
(§5) The effect of drug treatment on parasite survival was determined by calculating the mean suppression in the light emitted from the drug-treated experimental sample compared to the mean control value and used to calculate the IC50 using Grafit® software (version 5.0, Erithacus Software, East Grinstead, West Sussex, UK). The effect of drug alone on the viability of uninfected macrophages was determined using the same experimental protocol above, but cell viability was determined using an alamar blue colorimetric assay. At the end of the incubation period, cells’ 10 µL resazurin solution (0.02% w/v) was added to control and drug treated cells and the absorbance of samples was read at 575 and 595 nm. The effect of drug treatment on cell survival, which correlates with the magnitude of dye reduction, was expressed as percentage viability (or alamar blue reduction) and determined using the formula provided in the manufacturer’s protocol % alamar blue reduction=(εoxλ)(Aλ1)−(εoxλ1)(Aλ2)/(εredλ1)(A^′λ2)−(εredλ2)(A^′λ1)x100 […]

[2] = system: L. donovani 275/18 Milt-Sb-resistant promastigotes; experiment: Promastigote luciferase assay, Milt-resistant 275/18; details: for IC50: Leishmania donovani, read-out: Mean IC50 Value Promastigotes
Excerpt: as §1
The anti-leishmanial activity of APC against L. donovani luciferase-expressing promastigotes was determined by adding of the appropriate 100 µL parasite line (10^6 cells/mL) to the wells of a 96-well plate and adding 100 µL medium alone (controls) or 100 µL of APC compound (0.01 µg/mL–6.25 µg/mL, n = 3/treatment). […].
as §4
(§6) The effect of drug treatment on parasite survival was determined by calculating the mean suppression in the light emitted from the drug-treated experimental sample compared to the mean control value and used to calculate the IC50 using Grafit® software (version 5.0, Erithacus Software, East Grinstead, West Sussex, UK). The effect of drug alone on the viability of uninfected macrophages was determined using the same experimental protocol above, but cell viability was determined using an alamar blue colorimetric assay. At the end of the incubation period, cells’ 10 µL resazurin solution (0.02% w/v) was added to control and drug treated cells and the absorbance of samples was read at 575 and 595 nm. The effect of drug treatment on cell survival, which correlates with the magnitude of dye reduction, was expressed as percentage viability (or alamar blue reduction) and determined using the formula provided in the manufacturer’s protocol % alamar blue reduction=(εoxλ)(Aλ1)−(εoxλ1)(Aλ2)/(εredλ1)(A^′λ2)−(εredλ2)(A^′λ1)x100
Cross resistance (CRI50) indexes were determined as Cross selectivity indices (CRI)=mean IC50 value for the relevant drug−resistant strain i.e., Sb−I or Sb−R / mean IC50 value drug−sensitive strain Sb−S

[3] = system: L. donovani LV82 promastigotes; experiment: Luciferase-expressing promastigote assay, strain LV82; details: for Promast: Amast Ratio / IC90: LV82; for IC50 / IC90: Leishmania donovani; for IC50: 72 h
Procedure: (§7) The anti-leishmanial activity of APC against L. donovani luciferase-expressing promastigotes was determined by adding of the appropriate 100 µL parasite line (10^6 cells/mL) to the wells of a 96-well plate and adding 100 µL medium alone (controls) or 100 µL of APC compound (0.01 µg/mL–6.25 µg/mL, n = 3/treatment). The plate was incubated for 72 h at 25 °C. In combination assays, the additional compound/compounds, at a final concentration of 0.195 or 0.39 µg/mL, was added to the initial APC being tested.
as §4, §6

[4] = system: L. donovani 282/4 Milt-Sb-sensitive promastigotes; experiment: Promastigote luciferase assay, Milt-resistant 282/4; details: for IC50: Leishmania donovani, read-out: Mean IC50 Value Promastigotes; for Promast: Amast Ratio: strain 282/4, Milt-Sb-sensitive
Excerpt: as §1, §7, §4, §6

[5] = system: L. donovani 275/18 Milt-Sb-resistant intracellular amastigotes; experiment: Intracellular amastigote assay, Milt-resistant 275/18; details: for IC50: Leishmania donovani, read-out: Mean IC50 Value Amastigotes; for Selectivity Index (SI50): macrophage CC50 / amastigote IC50
Excerpt: as §1, §2, §3, §4, §5

[6] = system: L. donovani 087/11 (Sb-intermediate) intracellular amastigotes; experiment: Intracellular amastigote assay, Sb-intermediate strain 087/11; details: for IC50: Leishmania donovani, read-out: Mean IC50 Amastigotes; for Cross-Resistance Index (CRI50) Amast: strain 087/11, Sb-intermediate vs Sb-S; for Selectivity Index (SI50): strain 087/11, Sb-intermediate, macrophage CC50 / amastigote IC50
Excerpt: as §1, §2, §3, §4, §5

[7] = system: L. donovani 275/18 (Sb-resistant) intracellular amastigotes; experiment: Intracellular amastigote assay, Sb-resistant strain 275/18; details: for IC50: Leishmania donovani, read-out: Mean IC50 Amastigotes; for Cross-Resistance Index (CRI50) Amast: strain 275/18, Sb-resistant vs Sb-S; for Selectivity Index (SI50): strain 275/18, Sb-resistant, macrophage CC50 / amastigote IC50
Excerpt: as §1, §2, §3, §4, §5

[8] = strain 275/18, Milt-Sb-resistant

SMILES	IC50 [1]	Cross-Resistance Index (CRI50) Amast [1]	Selectivity Index (SI50) [1]	IC50 [2]	Promast: Amast Ratio [2, 8]	Promast: Amast Ratio [3]	IC50 ([3]; LV82, 3 days, 25 °C)	IC90 [3]	IC50 [4]	Promast: Amast Ratio [4]	IC50 [5]	Selectivity Index (SI50) [5, 8]	IC50 [6]	Cross-Resistance Index (CRI50) Amast [6]	Selectivity Index (SI50) [6]	IC50 [7]	Cross-Resistance Index (CRI50) Amast [7]	Selectivity Index (SI50) [7]	further results
CCCCCCCCCCCCOP(=O)([O-])OCC[N+](C)(C)C [APC12, dodecylphosphocholine]	6.17 µg/mL and 17.6 µM	77.13	5.73	> 125 µg/mL and > 356 µM	>28.09	16.46	0.163 µg/mL and 460 nM	1.47 µg/mL	> 125 µg/mL and > 356 µM	>1562.5	4.45 µg/mL and 12.7 µM	7.95	0.2 µg/mL and 570 nM	0.77	176.90	0.23 µg/mL and 650 nM	0.88	153.83	Promastigotes mean IC50 ([3]; LV82, 3 days, 25 °C): 0.16 ± 0.00 µg/mL; fold more active than Milt (APC16) ([3]; promastigotes): 10 fold
CCCCCCCCCCCCCCOP(=O)([O-])OCC[N+](C)(C)C [APC14, tetradecylphosphocholine]	10 µg/mL and 26.4 µM	> 5.95	4.08	> 125 µg/mL and > 329 µM		7.97	0.2 µg/mL and 530 nM		> 125 µg/mL and > 329 µM	>72.25	34.9 µg/mL and 91.8 µM	1.17	0.19 µg/mL and 500 nM	1.58	215.21	0.28 µg/mL and 740 nM	2.33	146.04	Cross-Resistance Index (CRI50) Promast [2, 8]: 1.00; Cross-Resistance Index (CRI50) Amast [5, 8]: > 20.144
CCCCCCCCCCCCCCCCOP(=O)([O-])OCC[N+](C)(C)C [APC16, hexadecylphosphocholine, reference compound]	12.7 µg/mL and 31 µM			> 125 µg/mL and > 307 µM	2.04	7.00	0.7 µg/mL and 1.72 µM	6.3 ± 0.1 µg/mL	> 125 µg/mL and > 307 µM	>77.64	> 61.4 µg/mL and > 151 µM		0.29 µg/mL and 710 nM			0.51 µg/mL and 1.25 µM			
